# Experimental data as given in patent publication US4379780A, “17 α-Dihydroequilin hapten and assay method” (American Home Products Corporation, priority 1980, dated 1983).
# System: anti-17α-dihydroequilin serum
# Assay: Cross-reactivity of steroids with the anti-17α-dihydroequilin serum (radioimmunoassay)
# Type: binding
# Details: selected rabbit anti-17α-dihydroequilin serum; [2,4-3H]-17α-dihydroequilin tracer
# Experimental: For the assay procedure, a standard was prepared from a stock solution of unlabeled steroid in absolute ethanol (100 ng/ml). A working standard solution containing 1 ng/ml of unlabeled steroid was prepared in sodium phosphate buffer (0.1 M, pH 7, 0.9% NaCl). The labeled [2,4-^3 H]-17α-dihydroequilin solution was prepared in the assay buffer at a concentration of 100 pg/ml. The antiserum was prepared in BSA-assay buffer (1 g BSA/1000 ml sodium phosphate buffer) at a concentraton of one-fifth of the final working dilutions.
# The standard curve was established by preparing duplicate 3 ml centrifuge tubes containing 0, 50, 100, 250, 500, 1000, and 2000 pg of the steroid in a total volume of 0.5 ml assay buffer. The sample tubes were prepared in duplicate with hydrolyzed plasma extract (0.1 ml) and assay buffer (0.4 ml) in a total volume of 0.5 ml. To all standard and sample tubes antibody (0.25 ml) and labeled steroid (0.5 ml) were added. These were mixed and allowed to incubate at 4° C. for 18 hr. After addition of 0.2 ml gamma globulin dextran-coated charcoal (4 g charcoal, 0.4 g dextran, 0.8 g human gamma globulin, 200 ml deionized water), each tube was again mixed and placed in a cold room (4° C.) for 20 min. After centrifugation at 2,500 rev./min for 6 min, 0.5 ml of each supernatant was aliquoted into a counting vial. Then 15 ml of a scintillation medium [(4 g of 2,5-diphenyloxazole (PPO), 50 mg of 1,4-di-2-(5-phenyloxazoyl)benzene (dimethyl-POPOP), 100 ml of the aqueous solubilizer Biosolv BBS-3 (Biosolv is a trademark of Beachman Instruments, Irvine, Calif., U.S.A.) and 1000 ml toluene] was added to each vial. The samples were counted to a relative standard error of less than 2% in a Packard model 3320 liquid scintillation counter, Packard Instrument Co., Downers Grove, Ill., U.S.A., see C. Matthijssen and J. W. Goldzieher, Analyt. Biochem., 10, 401 (1965).
# The titer was determined from the ability of antibody to bind a constant amount (50 pg) of the labeled steroid.
row,SMILES,17α-Dihydroequilin Antibody (Percent Cross-Reactivity) [%]
1,C[C@]12CC[C@@H]3c4ccc(O)cc4C=C[C@H]3[C@@H]1CCC2=O [6-Dehydroestrone],< 0.10
2,C[C@]12CCc3c(ccc4cc(O)ccc34)[C@@H]1CC[C@H]2O [17α-Dihydroequilenin],< 0.10
3,C[C@]12CC[C@H]3C(=CCc4cc(OS(=O)(=O)O)ccc43)[C@@H]1CC[C@H]2O [17α-Dihydroequilin 3-sulfate],9.04
4,C[C@]12CC[C@H]3[C@@H](CCC4=CC(=O)CC[C@@]43C)[C@@H]1CC[C@@H]2O [Testosterone],< 0.10
5,"C[C@]12CCC(=O)C=C1CC[C@@H]1[C@@H]2CC[C@]2(C)C(=O)CC[C@@H]12 [4-Androstene-3,17-dione]",< 0.10
6,"C[C@]12CC[C@@H]3c4ccc(O)cc4C[C@@H](O)[C@]3(O)[C@@H]1CCC2=O [Equilin-7α,8α-glycol]",< 0.10
7,C[C@]12CC[C@@H]3c4ccc(O)cc4CC[C@H]3[C@@H]1CC[C@H]2O [Estradiol-17α],< 0.10
8,C[C@]12CCC3=C(CCc4cc(O)ccc43)[C@@H]1CCC2=O [8-Dehydroestrone],< 0.10
9,C[C@]12CC[C@@H]3c4ccc(O)cc4CC[C@H]3[C@@H]1CCC2=O [Estrone],< 0.10
10,C[C@]12CCc3c(ccc4cc(O)ccc34)[C@@H]1CCC2=O [Equilenin],0.40
11,CC(=O)[C@H]1CC[C@H]2[C@@H]3CCC4=CC(=O)CC[C@]4(C)[C@H]3CC[C@]12C [Progesterone],< 0.10
12,C[C@]12CC[C@@H]3c4ccc(O)cc4CC[C@H]3[C@@H]1CC[C@@H]2O [Estradiol-17β],< 0.10
13,C[C@]12CC[C@H](O)CC1=CC[C@@H]1[C@@H]2CC[C@]2(C)C(=O)CC[C@@H]12 [Dehydroepiandrosterone],< 0.10
14,C[C@]12CC[C@H]3C(=CCc4cc(O)ccc43)[C@@H]1CCC2=O [Equilin],0.7
15,C[C@]12CCC(=O)C=C1CC[C@@H]1[C@@H]2[C@@H](O)C[C@@]2(C)[C@H]1CC[C@]2(O)C(=O)CO [Cortisol],< 0.10
16,C[C@]12CC[C@@H](O)C[C@@H]1CC[C@@H]1[C@@H]2CC[C@]2(C)C(=O)CC[C@@H]12 [Androsterone],< 0.10
17,C[C@]12CC[C@@H]3c4ccc(OS(=O)(=O)O)cc4CC[C@H]3[C@@H]1CC[C@H]2O [17α-Estradiol 3-sulfate],< 0.10
18,C[C@]12CC[C@H]3C(=CCc4cc(O)ccc43)[C@@H]1CC[C@@H]2O [17β-Dihydroequilin],< 0.10
19,C[C@]12CCc3c(ccc4cc(O)ccc34)[C@@H]1CC[C@@H]2O [17β-Dihydroequilenin],< 0.10
20,"C[C@]12CC[C@H]3C(=CCc4cc(O)ccc43)[C@@H]1CC[C@H]2O [17α-Dihydroequilin, 1,3,5(10),7-estratetraene-3,17α-diol]",100.0

# System: not listed separately
# Assay: Oxidation of 17α-dihydroequilin to 17α-dihydroequilenin during formic acid hydrolysis (HPLC)
# Type: physicochemical
# Details: 0.1% (w/v) ascorbic acid added before hydrolysis; 120 min
# Experimental: Plasma (0.2 ml) and distilled water (0.7 ml) were added to a 16×125 mm tube and mixed. [6,7-^3 H]-Estrone-3-sulfate (0.1 ml, 2000 cpm, obtained from New England Nuclear Corp.), and [2,4-^3 H]-17α-dihydroequilin (0.1 ml, 2000 cpm) was then added to correct for recovery through the assay procedure, and the sample again mixed well and allowed to stand at room temperature for 30 min. Diethyl ether (2 ml) was added for extraction of the free compound. The extraction was repeated three times and the combined extracts washed with distilled water (1 ml) and the solvent removed by evaporation. The aqueous phase containing the conjugates was re-extracted with 2 ml of ethyl acetate-ethanol (4:1, v/v). The extraction was repeated two more times and the combined extracts were dried in a centrifuge tube (12 ml) under a stream of nitrogen. Absolute ethanol was added to those tubes which contained residual water and once again dried under nitrogen. The conjugate fraction was hydrolyzed with formic acid. […] The tube was tightly closed, vortexed, and sonified for 10 min before being placed in a 37° C. water bath for 2 hr. The hydrolyzed sample was taken to dryness, sodium phosphate buffer (1 ml) was added, and the solution was vortexed and allowed to stand at 20° C. for 10 min. The hydrolyzed free compound was extracted with diethyl ether (2 ml) three times and taken to dryness. […]
row,SMILES,17α-dihydroequilin oxidized to 17α-dihydroequilenin during hydrolysis with formic acid
1,"C[C@]12CC[C@H]3C(=CCc4cc(O)ccc43)[C@@H]1CC[C@H]2O [17α-Dihydroequilin, 1,3,5(10),7-estratetraene-3,17α-diol]",2-3%

# Same assay, conditions: without ascorbic acid; 120 min
row,SMILES,17α-dihydroequilin oxidized to 17α-dihydroequilenin during hydrolysis with formic acid
1,"C[C@]12CC[C@H]3C(=CCc4cc(O)ccc43)[C@@H]1CC[C@H]2O [17α-Dihydroequilin, 1,3,5(10),7-estratetraene-3,17α-diol]",13-16%
